Results published in ChEMBL document CHEMBL3817844 (Medchemcomm, 2016).

Tests used:
Schistosoma mansoni [1] = assay: Antischistosomal activity against adult male Schistosoma mansoni BH derived from infected Swiss mouse assessed as reduction in motility measured immediately after treatment by automated image-based analysis; type: functional, organism-based
Schistosoma mansoni [2] = assay: Antischistosomal activity against adult male Schistosoma mansoni BH derived from infected Swiss mouse assessed as reduction in motility measured after 48 hrs by automated image-based analysis; type: functional, organism-based
Schistosoma mansoni [3] = assay: Antischistosomal activity against newly transformed Schistosoma mansoni BH assessed as decrease in viability after 72 hrs by resazurin-based spectrophotometric assay; type: functional, organism-based
[4] = Inhibition of Schistosoma mansoni SERT
Schistosoma mansoni [5] = assay: Antischistosomal activity against adult male Schistosoma mansoni BH derived from infected Swiss mouse assessed as reduction in motility measured after 72 hrs by automated image-based analysis; type: functional, organism-based
Schistosoma mansoni [6] = assay: Antischistosomal activity against adult female Schistosoma mansoni BH derived from infected Swiss mouse assessed as reduction in motility measured after 24 hrs by automated image-based analysis; type: functional, organism-based
Schistosoma mansoni [7] = assay: Antischistosomal activity against adult female Schistosoma mansoni BH derived from infected Swiss mouse assessed as reduction in motility measured immediately after treatment by automated image-based analysis; type: functional, organism-based
Schistosoma mansoni [8] = assay: Antischistosomal activity against adult female Schistosoma mansoni BH derived from infected Swiss mouse assessed as reduction in motility measured after 72 hrs by automated image-based analysis; type: functional, organism-based
Schistosoma mansoni [9] = assay: Antischistosomal activity against adult male Schistosoma mansoni BH derived from infected Swiss mouse assessed as reduction in motility measured after 24 hrs by automated image-based analysis; type: functional, organism-based
Schistosoma mansoni [10] = assay: Antischistosomal activity against adult female Schistosoma mansoni BH derived from infected Swiss mouse assessed as reduction in motility measured after 48 hrs by automated image-based analysis; type: functional, organism-based

SMILES | EC50 (Schistosoma mansoni [1]) [µM] | EC50 (Schistosoma mansoni [2]) [µM] | IC50 (Schistosoma mansoni [3]) [µM] | IC50 [4] [µM] | EC50 (Schistosoma mansoni [5]) [µM] | EC50 (Schistosoma mansoni [6]) [µM] | EC50 (Schistosoma mansoni [7]) [µM] | EC50 (Schistosoma mansoni [8]) [µM] | EC50 (Schistosoma mansoni [9]) [µM] | EC50 (Schistosoma mansoni [10]) [µM]
Fc1ccc([C@@H]2CCNC[C@H]2COc2ccc3c(c2)OCO3)cc1 [PAROXETINE] | 23.5 | 3.8 | 2.5 | 0.09 | 2.7 | 9.9 | 17.4 | 11.9 | 5.1 | 11.5
O=C(C1CCCCC1)N1CC(=O)N2CCc3ccccc3C2C1 (stereo unspecified) [PRAZIQUANTEL] | 0.11 | 0.13 |  |  |  | 0.3 | 0.13 | 0.66 | 0.12 | 
